Results: US8586318B2, “Restricted access media and methods for making restricted access media” (Board of Regents of the University of Nebraska, priority 2008, dated 2013)

Assays:
[1] = tested on: anti-fluorescein antibodies; assay: Ultrafast extraction on anti-fluorescein RAM column, flow-based; type: binding, mouse
Procedure: For chromatographic studies, 200 μL injections of samples containing 0.5 nM fluorescein or 3 nM of fluorescein-BSA were made at flow rates ranging from 0.1-1.0 mL/min. The injections were performed at room temperature using 0.067 M potassium phosphate buffer (pH 7.4) as the application buffer. Two or three replicate injections were made at each flow rate onto columns containing the anti-fluorescein IA-RAM support or the corresponding control support. […] The fraction of extracted fluorescein was calculated by comparing the areas of the non-retained peaks to those obtained using a control column. […] The retained species were eluted between studies by washing the column with a 0.067 M potassium phosphate buffer (pH 2.5) for 20 minutes. Elution was followed by a column regeneration step by applying 0.067 M phosphate application buffer (pH 7.4) for 10 minutes before each new sample injection. The RAM, specifically an IA-RAM made using anti-fluorescein antibody, was tested for use in a flow-based system for the selective, ultrafast extraction of fluorescein versus a fluorescein-BSA conjugate. This was accomplished by comparing the results obtained with a RAM column to results for a control column containing only diol silica.

[2] = tested on: anti-fluorescein antibodies; assay: Static binding of fluorescein or fluorescein-BSA to anti-fluorescein RAM support; set-up: species or system mouse; conditions: 100 Å silica
Procedure: The binding properties of the anti-fluorescein IA-RAM support were initially determined before and after digestion by reacting this support with a known excess of fluorescein (sodium salt, MW=376 Da) or fluorescein-BSA conjugate (average MW=69.5 kDa). Studies were performed using anti-fluorescein antibodies covalently linked to Nucleosil Si-100 using the hydrazide-activation method. A 2 mg portion of the desired anti-fluorescein support was incubated with shaking in 1 mL of a 0.040 μg/mL fluorescein solution or 1 mL of 20 μg/mL fluorescein-BSA solution in 0.1 M potassium phosphate buffer (pH 7.4) at 4° C. for 30 minutes. The mixtures were centrifuged and the supernatant was analyzed for fluorescein or fluorescein-BSA content based on the fluorescence of the solutions. Standard solutions that contained 0.002-2.0 μg/mL fluorescein or 1-30 μg/mL of the fluorescein-BSA conjugate in 0.10 M potassium phosphate buffer (pH 7.4) were also analyzed. The amount of fluorescein or fluorescein-BSA bound to the anti-fluorescein IA-RAM supports was determined by comparing the final and initial concentrations of fluorescein or fluorescein-BSA that remained in solution. […] The fluorescein or fluorescein-BSA that was bound by anti-fluorescein antibodies was determined by determining the amount of the analytes that remained in solution after the incubation step.

In the case of “fluorescein-BSA conjugate: fluorescein conjugate of bovine serum albumin, prepared using fluorescein isothiocyanate, 12 mol fluorescein/mol protein”, the “retention on anti-fluorescein RAM column (in words)” value ([1]; injected at 0.1 mL/min) is reported as “no significant degree of binding”, the “extracted by anti-fluorescein RAM support” value ([1]; same conditions as used for fluorescein) is reported as “less than 1%” and the “original binding capacity of the covalently linked antibodies” value ([2]; before papain treatment, hydrazide method, 30 minutes incubation) is reported as 0.69 (±0.01) mg/g silica. For the same substance, the “decrease of binding capacity after treatment with papain” value ([2]; papain 90 minutes at 37° C., 1:100 (w/w)) was 92%.
